Laboratory results from patent publication US11472798B2 (Mission Therapeutics Limited, priority 2014, dated 2022).

Target: T1, UCHL1 (Homo sapiens, UniProt P09936)
T1 construct: made in house; host or cells: HEK293T
T1 sequence (P09936 1-223): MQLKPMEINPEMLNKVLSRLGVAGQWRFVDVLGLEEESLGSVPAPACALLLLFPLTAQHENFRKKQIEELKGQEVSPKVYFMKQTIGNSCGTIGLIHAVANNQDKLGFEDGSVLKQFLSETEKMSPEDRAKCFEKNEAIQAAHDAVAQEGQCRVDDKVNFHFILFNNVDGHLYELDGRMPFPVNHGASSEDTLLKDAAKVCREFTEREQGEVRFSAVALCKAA
Assay: UCHL1 biochemical IC50 assay (fluorescence polarisation)
Conditions: 30 min enzyme/compound pre-incubation at room temp, read after 2 hr incubation, read-out: Activity range (UCHL1 biochemical IC50 assay)
Description: Biological Activity of Compounds of the Invention Abbreviations: TAMRA carboxytetramethylrhodamine PCR polymerase chain reaction PBS phosphate buffered saline EDTA ethylenediaminetetraacetic acid Tris 2-amino-2-(hydroxymethyl)-1,3-propanediol NP-40 Nonidet P-40, octylphenoxypolyethoxyethanol BSA bovine serum albumin In Vitro UCHL1 Inhibition Assay Expression and Purification of UCHL1
The UCHL1 construct was PCR amplified and cloned into a pFLAG-CMV-6a vector (Sigma-Aldrich) with an N-terminal FLAG tag. HEK293T cells were transfected with FLAG-UCHL1 using TransIT-LT1 transfection reagent (Mirus) according to the manufacturer's instructions. Cells were harvested 40 hours after transfection. Cells were washed once with PBS and scraped in lysis buffer (50 mM Tris, pH 7.5, 150 mM NaCl, 3 mM EDTA, 0.5% NP40, 10% glycerol, 5 mM beta-mercaptoethanol, protease inhibitors (complete mini, Roche) and phosphatase inhibitors (PhosSTOP mini, Roche). Lysates were incubated for 30 min on ice and centrifuged at 1200 rpm for 10 min at 4° C. Soluble supernatant was added to FLAG affinity resin (EZview Rad ANTI-FLAG M2 affinity gel, Sigma-Aldrich) equilibrated in low salt buffer (20 mM Tris, pH 7.5, 150 mM NaCl, 0.5 mM EDTA, 5 mM beta-mercaptoethanol) and incubated at 4° C. for 3 hours rotating. The resin was spun at 2000 rpm for 2 min and the supernatant was removed. The resin was washed two times with low salt buffer and one time with high salt buffer (20 mM Tris, pH 7.5, 500 mM NaCl, 0.5 mM EDTA, 5 mM beta-mercaptoethanol, protease inhibitors (complete mini, Roche) and phosphatase inhibitors (PhosSTOP mini, Roche). To elute the bound UCHL1, elution buffer (10 mM Tris, pH 7.5, 150 mM NaCl, 0.5 mM FDTA, 10% glycerol, 0.5% NP40, 5 mM beta-mercaptoethanol, 0.15 mg/ml 3×FLAG peptide (Sigma-Aldrich)) was added to the resin and incubated at 4° C. for 2.5 hours rotating. The resin was centrifuged at 4000 rpm for 30 seconds, and the supernatant containing purified FLAG-UCHL1 was removed and stored at −80° C.
UCHL1 Biochemical IC50 Assay
Dilution plates were prepared at 21 times the final concentration (2100 μM for a final concentration of 100 µM) in 50% DMSO in a 96-well polypropylene V-bottom plate (Greiner #651201). A typical 8-point dilution series to be 100, 30, 10, 3, 1, 0.3, 0.1, 0.03 μM final. Reactions were performed in duplicate in black 384 well plates (small volume, Greiner 784076) in a final reaction volume of 21 μl. Either 1 μl of 50% DMSO or diluted compound was added to the plate. UCHL1 was diluted in reaction buffer (20 mM Tris, pH 7.5, 100 mM NaCl, 0.05% Tween 20, 0.5 mg/ml BSA, 5 mM—beta mercaptoethanol) to the equivalent of 0.05 μl/well and 10 μl of diluted UCHL1 was added to the compound. Enzyme and compound were incubated for 30 min at room temp. Reactions were initiated by the addition of 50 nM of TAMRA labelled peptide linked to ubiquitin via an iso-peptide bond as fluorescence polarisation substrate. Reactions were read immediately after addition of substrate and following a 2 hr incubation at room temperature. Readings were performed on a Pherastar Plus (BMG Labtech). λ Excitation 540 nm; k Emission 590 nm.

Row | IC50 [µM] | Molecule
1 | 1 to 10 | CC(NS(=O)(=O)c1ccc(NC(=O)[C@H]2CCN(C#N)C2)nc1)c1ccccc1 (stereo partly drawn) [Example 207, (3S)-1-cyano-N-(5-(N-(1-phenylethyl)sulfamoyl)pyridin-2-yl)pyrrolidine-3-carboxamide]
2 | < 1 | N#Cc1ccc(-n2cnc(NC(=O)[C@H]3CCN(C#N)C3)c2)cc1O[C@H]1CCOC1 [Example 247, (S)-1-cyano-N-(1-(4-cyano-3-(((S)-tetrahydrofuran-3-yl)oxy)phenyl)-1H-imidazol-4-yl)pyrrolidine-3-carboxamide]
3 | 1 to 10 | N#CN1CC[C@H](C(=O)Nc2cc(-c3ccccc3)ccn2)C1 [Example 268, (S)-1-cyano-N-(4-phenylpyridin-2-yl)pyrrolidine-3-carboxamide]
4 | < 1 | CN(C)S(=O)(=O)N1CCc2nc(NC(=O)[C@H]3CCN(C#N)C3)sc2C1 [Example 212, (S)-1-cyano-N-(5-(N,N-dimethylsulfamoyl)-4,5,6,7-tetrahydrothiazolo[5,4-c]pyridin-2-yl)pyrrolidine-3-carboxamide]
5 | < 1 | CC(C)S(=O)(=O)N1CCn2nc(NC(=O)[C@H]3CCN(C#N)C3)cc2C1 [Example 240, (S)-1-cyano-N-(5-(isopropylsulfonyl)-4,5,6,7-tetrahydropyrazolo[1,5-a]pyrazin-2 yl)pyrrolidine-3-carboxamide]
6 | < 1 | N#CN1C[C@@H](C(F)(F)F)[C@H](C(=O)Nc2ncc(-c3ccccc3)s2)C1 [Example 281, (3S, 4S)-1-cyano-N-(5-phenylthiazol-2-yl)-4-(trifluoromethyl)pyrrolidine-3-carboxamide]
7 | 1 to 10 | N#CN1CC[C@H](C(=O)Nc2nc3c(s2)CN(Cc2ccccc2)CC3)C1 [Example 201, (S)—N-(5-benzyl-4,5,6,7-tetrahydrothiazolo[5,4-c]pyridin-2-yl)-1-cyanopyrrolidine-3-carboxamide]
8 | 1 to 10 | CC(C)(C)c1ccnc(NC(=O)[C@H]2CCN(C#N)C2)c1 [Example 273, (S)-N-(4-(tert-butyl)pyridin-2-yl)-1-cyanopyrrolidine-3-carboxamide]
9 | < 1 | N#CN1CC[C@H](C(=O)Nc2cn(-c3cccnc3)cn2)C1 [Example 181, (S)-1-cyano-N-(1-(pyridin-3-yl)-1H-imidazol-4-yl)pyrrolidine-3-carboxamide]
10 | < 1 | N#CN1CC[C@H](C(=O)Nc2nc3c(s2)CN(C(=O)c2ccccn2)CC3)C1 [Example 193, (S)-1-cyano-N-(5-picolinoyl-4,5,6,7-tetrahydrothiazolo[5,4-c]pyridin-2-yl)pyrrolidine-3-carboxamide]
11 | 1 to 10 | CN(C)CC(=O)N1CCc2nc(NC(=O)[C@H]3CCN(C#N)C3)sc2C1 [Example 197, (S)-1-cyano-N-(5-(dimethylglycyl)-4,5,6,7-tetrahydrothiazolo[5,4-c]pyridin-2-yl)pyrrolidine-3-carboxamide]
12 | < 1 | CCNC(=O)c1cccc(-c2cnc(NC(=O)[C@H]3CCN(C#N)C3)s2)n1 [Example 225, (S)-6-(2-(1-cyanopyrrolidine-3-carboxamido)thiazol-5-yl)-N-ethylpicolinamide]

More lines, now with the values behind:

Row | Molecule | IC50 [µM]
13 | N#CN1CC[C@H](C(=O)Nc2ncc(N3CCOCC3)s2)C1 [Example 91, (S)-1-cyano-N-(5-morpholinothiazol-2-yl)pyrrolidine-3-carboxamide] | < 1
14 | N#CN1CCC(C(=O)Nc2nc3ccc(Br)cc3s2)C1 (centres unmarked) [Example 22, N-(6-bromobenzo[d]thiazol-2-yl)-1-cyano-pyrrolidine-3-carboxamide] | 1 to 10
15 | N#CN1CC[C@H](C(=O)Nc2cn(Cc3ccncc3)cn2)C1 [Example 170, (S)-1-cyano-N-(1-(pyridin-4-ylmethyl)-1H-imidazol-4-yl)pyrrolidine-3-carboxamide] | < 1
16 | C[C@H]1[C@@H](C(=O)Nc2cn([C@@H](C)c3ccccc3)cn2)CCN1C#N [Example 172, (2S,3S)-1-cyano-2-methyl-N-(1-((S)-1-phenylethyl)-1H-imidazol-4-yl)pyrrolidine-3-carboxamide] | 1 to 10
17 | N#CN1CC[C@@H](C(=O)Nc2ncc(N3CCCCC3)s2)C1 [Example 103, (R)-1-cyano-N-(5-(piperidin-1-yl)thiazol-2-yl)pyrrolidine-3-carboxamide] | 1 to 10
18 | Cc1ccc(NC(=O)C2CCN(C#N)C2)nc1 (centres unmarked) [Example 26, 1-cyano-N-(5-methylpyridin-2-yl)pyrrolidine-3-carboxamide] | 10 to 30
19 | N#CN1CC[C@H](C(=O)Nc2cn(CCc3ccccc3)cn2)C1 [Example 147, (S)-1-cyano-N-(1-phenethyl-1H-imidazol-4-yl)pyrrolidine-3-carboxamide] | < 1
20 | Cc1cnc(NC(=O)C2CCN(C#N)C2)s1 (centres unmarked) [Example 7, 1-cyano-N-(5-methylthiazol-2-yl)pyrrolidine-3-carboxamide] | 1 to 10
21 | N#CN1CCC(C(=O)Nc2ccc3c(cnn3Cc3ccccc3)c2)C1 (centres unmarked) [Example 39, N-(1-benzyl-1H-indazol-5-yl)-1-cyano-pyrrolidine-3-carboxamide] | 10 to 30
22 | (S)-1-cyano-N-(isoquinolin-yl)pyrrolidine-3-carboxamide [Example 58] | 1 to 10
23 | N#CN1CC[C@H](C(=O)Nc2ncc(-c3ccc(F)c(F)c3)s2)C1 [Example 67, (S)-1-cyano-N-(5-(3,4-difluorophenyl)thiazol-2-yl)pyrrolidine-3-carboxamide] | < 1
24 | Cc1noc(C)c1-c1ccc2nc(NC(=O)[C@H]3CCN(C#N)C3)sc2c1C [Example 138, (S)-1-cyano-N-(6-(3,5-dimethylisoxazol-4-yl)-7-methylbenzo[d]thiazol-2-yl)pyrrolidine-3-carboxamide] | < 1
25 | Cc1c(-c2cnn(C)c2)ccc2nc(NC(=O)[C@H]3CCN(C#N)C3)sc12 [Example 139, (S)-1-cyano-N-(7-methyl-6-(1-methyl-1H-pyrazol-4-yl)benzo[d]thiazol-2-yl)pyrrolidine-3-carboxamide] | < 1
26 | N#Cc1cccc(-c2cnc(NC(=O)[C@H]3CCN(C#N)C3)s2)c1 [Example 117, (S)-1-cyano-N-(5-(3-cyanophenyl)thiazol-2-yl)pyrrolidine-3-carboxamide] | < 1
27 | N#CN1CC[C@H](C(=O)Nc2nc3ccc(-n4nccn4)cc3s2)C1 [Example 63, (S)-N-(6-(2H-1,2,3-triazol-2-yl)benzo[d]thiazol-2-yl)-1-cyano-pyrrolidine-3-carboxamide] | 1 to 10
28 | N#CN1CCC(C(=O)Nc2ncc(-c3ccccc3N)s2)C1 (centres unmarked) [Example 109, N-(5-(2-aminophenyl)thiazol-2-yl)-1-cyanopyrrolidine-3-carboxamide] | 1 to 10
29 | N#CN1CC[C@H](C(=O)Nc2cn(-c3ccc(C(F)(F)F)cc3)cn2)C1 [Example 153, (S)-1-cyano-N-(1-(4-(trifluoromethyl)phenyl)-1H-imidazol-4-yl)pyrrolidine-3-carboxamide] | < 1
30 | C[C@H]1[C@@H](C(=O)Nc2cn(-c3ccccc3)cn2)CCN1C#N [Example 74, (2S,3S)-1-cyano-2-methyl-N-(1-phenyl-1H-imidazol-4-yl)pyrrolidine-3-carboxamide] | < 1
31 | N#CN1CC[C@H](C(=O)Nc2cn3ccc(Br)cc3n2)C1 [Example 50, (S)-N-(7-bromoimidazo[1,2-a]pyridin-2-yl)-1-cyano-pyrrolidine-3-carboxamide] | 1 to 10
32 | C[C@@H](c1ccccc1)n1cnc(NC(=O)[C@H]2CCN(C#N)C2)c1 [Example 166, (S)-1-cyano-N-(1-((S)-1-phenylethyl)-1H-imidazol-4-yl)pyrrolidine-3-carboxamide] | < 1
